This is an account of results in patent EP0399716A1, “Hypoallergenic steroidal anesthetic/hypnotic compositions” (INNOVET, INC., priority 1989, dated 1990).

Structures are written as SMILES.

For the data set, the system named is horses. Put plainly: Alfaxalone/HPCD anesthesia in the horse. Here is the method: In the first stage, two horses were anesthetized after heavy premedication with xylazine (0.6 mg/kg). […] Heart rate, respiratory rate, blood pressure, ECG and ventilation were monitored throughout the anesthesia period.
The same parameters as in the first stage were monitored.
Cardiopulmonary parameters were monitored as before.
To provide some comparison in the above stages, the two horses were anesthetized with thiamylal sodium (8 mg/kg) after the same premedication as before and a similar monitoring regime followed.
A third horse was obtained and the same regimen was followed as in the third stage, but three "top-ups" of one-third induction dose were administered at 10 minute intervals. Similar monitoring as above was continued.
Blood pressure was measured from an acutely placed antraarterial catheter and read through a transducer/digital readout system which included an ECG tracing oscilloscope.

For the compound `CC(=O)[C@H]1CC[C@H]2[C@@H]3CC[C@H]4C[C@H](O)CC[C@]4(C)[C@H]3C(=O)C[C@]12C` (stereo in doubt) [alfaxalone, 3α-hydroxy-5α-pregnane-11,20-dione], for the setting “alfaxalone alone recoveries”, the “recoveries classified as excellent” value is listed as “Four of the five”.
Regarding `C=CCC1(C(C)CCC)C(=O)N=C(S)NC1=O` (stereo not drawn) [thiamylal, thiamylal sodium], the blood pressure effect result (after xylazine premedication) is recorded as “the same effect”.
In the case of `Cc1cccc(C)c1N=C1NCCCS1` [xylazine], the sedation entry (0.6 mg/kg i.v.) is given as “good sedation without ataxia”.
